Source: US20220296557A1, “COMBINATIONS OF BCL-2/BCL-XL INHIBITORS AND RELATED USES” (Ascentage Pharma (Suzhou) Co., Ltd., priority 2020, published 2022)

How the values were obtained:
Assay type in all cases: cell-based
[1] = test system: NEN cell lines; test: NEN cell viability (general statement); details: FIGS. 3A and 3B
Description: (§1) FIGS. 3A and 3B are a set of graphs showing the cell viability/CTG assays for NEN cell lines treated with BCL-2/xL inhibitor Compound No. 2 (an active metabolite of Compound No. 1)(FIG. 3A) or ABT-263 (FIG. 3B).
(§2) The activity of Compound No. 2 (an active metabolite of Compound No. 1) in overcoming apoptotic blockade in neuroendocrine neoplasm was tested, alone or in comparison with ABT-263.

[2] = test system: BAX:BAK complex; test: BCL-2 family member complex intensity: BAX:BAK; details: BON-1 and QGP-1 treated with BCL-2/xL inhibitors; FIG. 4C
Description: (§3) FIGS. 4A-4C are a set of graphs showing the BCL-2 family member complex intensity in BON-1 and QGP-I treated with BCL-2/xL inhibitors (FIG. 4A: BCL-xL:BIM complex, FIG. 4B: BCL-xL:PUMA complex; and FIG. 4C: BAX:BAK protein complexes).

[3] = test system: QGP-1; test: Cell viability/CTG assay, QGP-1; details: QGP-1 cell line; CTG assay, 72 hr; values approximate; read-out: IC (μM, CTG assay: 72 hr)
Description: as §1, §2

[4] = test system: NCI-H460; test: Cell viability/CTG assay, NCI-H460; details: Homo sapiens; NCI-H460 cell line; CTG assay, 72 hr; values approximate; read-out: IC (μM, CTG assay: 72 hr)
Description: as §1, §2

[5] = test system: β-TC3; test: Cell viability/CTG assay, β-TC3; details: β-TC3 cell line; CTG assay, 72 hr; values approximate; read-out: IC (μM, CTG assay: 72 hr)
Description: as §1, §2

[6] = test system: NCI-H727; test: Cell viability/CTG assay, NCI-H727; details: Homo sapiens; NCI-H727 cell line; CTG assay, 72 hr; values approximate; read-out: IC (μM, CTG assay: 72 hr)
Description: as §1, §2

[7] = test system: MIN-6; test: Cell viability/CTG assay, MIN-6; details: Mus musculus, MIN6; MIN-6 cell line; CTG assay, 72 hr; values approximate; read-out: IC (μM, CTG assay: 72 hr)
Description: as §1, §2

[8] = test system: BON-1; test: Cell viability/CTG assay, BON-1; details: BON-1 cell line; CTG assay, 72 hr; values approximate; read-out: IC (μM, CTG assay: 72 hr)
Description: as §1, §2

[9] = target: T1, BCL-xL:BIM complex (Homo sapiens, UniProt Q07817); test: BCL-2 family member complex intensity: BCL-xL:BIM; details: BON-1 and QGP-1 treated with BCL-2/xL inhibitors; FIG. 4A
T1 construct: High expression of BCL-xL protein was found in NEN cell lines; endogenous in cells; host or cells: BON-1 and QGP-1 (printed QGP-I) NEN cell lines
T1 sequence (Q07817 whole entry, one chain of several): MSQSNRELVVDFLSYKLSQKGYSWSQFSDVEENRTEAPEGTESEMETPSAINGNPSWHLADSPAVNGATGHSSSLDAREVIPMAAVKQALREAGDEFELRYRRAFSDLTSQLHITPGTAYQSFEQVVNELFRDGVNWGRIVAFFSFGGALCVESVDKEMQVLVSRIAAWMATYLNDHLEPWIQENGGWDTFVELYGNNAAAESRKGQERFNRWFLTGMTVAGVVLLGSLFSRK
Description: as §3

IC50 [4] [µM] | IC50 [6] [µM] | BCL-xL:BIM complex [9] | SMILES | NEN cell viability [1] | BAX:BAK complex [2] | IC50 [3] [µM] | IC50 [5] [µM] | IC50 [7] [µM] | IC50 [8] [µM]
≥ 10 | 3.79 | decreases BCL-xL:BIM complex | Cc1c(S(C)(=O)=O)c(-c2cc(F)cc(N3CCN(c4ccc(NS(=O)(=O)c5ccc(N[C@H](CCN6CCC(C(=O)O)CC6)CSc6ccccc6)c(S(=O)(=O)C(F)(F)F)c5)cc4)CC3)c2)c(-c2ccc(Cl)cc2)n1C(C)C [Compound No. 2] | inhibits the NEN cell viability | increases BAX:BAK complex | 3.78 | 0.55 | 2.07 | 0.43
71 | 3.74 | – | CC1(C)CCC(c2ccc(Cl)cc2)=C(CN2CCN(c3ccc(C(=O)NS(=O)(=O)c4ccc(N[C@H](CCN5CCOCC5)CSc5ccccc5)c(S(=O)(=O)C(F)(F)F)c4)cc3)CC2)C1 [ABT-263, 4-(4-{[2-(4-Chlorophenyl)-5,5-dimethyl-1-cyclohexen-1-yl]methyl}-1-piperazinyl)-N-[(4-{[(R)-4-(4-morpholinyl)-1-(phenylsulfanyl)-2-butanyl]amino}-3-[(trifluoromethyl)sulfonyl]phenyl)-sulfonyl]benzamide, reference compound] | – | – | ≥ 10 | 1.12 | 5.56 | 0.91
